In patent publication US8598202B2, “Aryl-hydroxyethylamino-pyrimidines and triazines as modulators of fatty acid amide hydrolase” (Janssen Pharmaceutica NV, priority 2008, dated 2013):
Where a name gives a salt, the structure may show the parent alone. Read-outs that look alike come from different tables or passages of the source.

Assays:
FAAH = target: T1, FAAH (Homo sapiens, UniProt O00519); assay: Assay Method 1: FAAH assay, 3H-anandamide hydrolysis in homogenate of T84 cells or SK-N-MC cells transfected with human FAAH
T1 sequence (O00519 1-579): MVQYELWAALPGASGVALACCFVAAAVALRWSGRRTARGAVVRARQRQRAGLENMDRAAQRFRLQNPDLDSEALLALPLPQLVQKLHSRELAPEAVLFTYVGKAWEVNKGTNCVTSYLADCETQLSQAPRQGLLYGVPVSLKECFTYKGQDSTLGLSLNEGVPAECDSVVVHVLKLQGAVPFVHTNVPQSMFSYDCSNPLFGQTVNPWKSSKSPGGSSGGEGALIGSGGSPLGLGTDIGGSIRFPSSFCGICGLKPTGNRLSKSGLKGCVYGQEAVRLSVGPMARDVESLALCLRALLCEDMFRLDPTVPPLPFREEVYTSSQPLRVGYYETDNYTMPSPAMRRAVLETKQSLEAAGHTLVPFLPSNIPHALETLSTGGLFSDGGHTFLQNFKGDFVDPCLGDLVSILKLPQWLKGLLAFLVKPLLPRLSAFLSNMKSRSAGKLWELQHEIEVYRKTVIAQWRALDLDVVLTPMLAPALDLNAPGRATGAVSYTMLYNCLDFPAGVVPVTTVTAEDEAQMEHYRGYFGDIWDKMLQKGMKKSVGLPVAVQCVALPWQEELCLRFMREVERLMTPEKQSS

Rat FAAH-1 = target: T2, Rat FAAH-1 (Rattus norvegicus, UniProt P97612); assay: Assay Method 2: rat FAAH-1 assay, 3H-anandamide hydrolysis in homogenate of SK-N-MC cells transfected with rat FAAH
T2 sequence (P97612 1-579): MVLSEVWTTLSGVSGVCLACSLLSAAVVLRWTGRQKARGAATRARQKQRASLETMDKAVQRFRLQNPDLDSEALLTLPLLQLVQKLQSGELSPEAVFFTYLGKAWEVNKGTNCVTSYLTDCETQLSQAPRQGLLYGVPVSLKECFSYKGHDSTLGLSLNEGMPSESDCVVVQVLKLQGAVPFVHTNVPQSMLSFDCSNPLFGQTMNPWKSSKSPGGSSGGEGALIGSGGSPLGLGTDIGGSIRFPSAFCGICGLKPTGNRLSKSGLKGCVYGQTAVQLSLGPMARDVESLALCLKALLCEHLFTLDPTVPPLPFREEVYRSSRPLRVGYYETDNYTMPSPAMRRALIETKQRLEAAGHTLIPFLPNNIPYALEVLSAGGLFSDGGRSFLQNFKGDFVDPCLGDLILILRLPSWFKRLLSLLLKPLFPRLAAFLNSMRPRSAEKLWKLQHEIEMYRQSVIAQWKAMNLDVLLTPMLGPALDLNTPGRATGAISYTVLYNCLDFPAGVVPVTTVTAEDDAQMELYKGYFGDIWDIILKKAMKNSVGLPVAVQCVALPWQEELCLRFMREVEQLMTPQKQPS

[1] = read-out: Assay 1 IC50, Table 2, Comparative Examples, human FAAH
[2] = read-out: Assay 2 IC50, Table 2, Comparative Examples, rat FAAH-1

| IC50 (FAAH) [µM] | IC50 (Rat FAAH-1) [µM] | IC50 (FAAH; [1]) [µM] | IC50 (Rat FAAH-1; [2]) [µM] | Compound |
| --- | --- | --- | --- | --- |
| 0.04 | 0.85 | – | – | OC(CNc1cc(-c2ccc(C(F)(F)F)c(Cl)c2)ncn1)c1ccc(-c2ccccn2)cc1 (stereo not shown) [Example 193, 2-({6-[3-Chloro-4-(trifluoromethyl)phenyl]pyrimidin-4-yl}amino)-1-(4-Pyridin-2-ylphenyl)ethanol] |
| 0.065 | 0.033 | – | – | N#Cc1ccc(-c2cc(NC[C@H](O)c3ccccc3)ncn2)cc1F [Example 88, 2-Fluoro-4-(6-{[(2R)-2-hydroxy-2-phenylethyl]amino}pyrimidin-4-yl)benzonitrile trifluoroacetic acid salt] |
| 0.002 | 0.003 | – | – | O[C@@H](CNc1cc(-c2ccc(OC(F)(F)F)c(Cl)c2)ncn1)c1ccc(F)cc1 [Example 175, (1R)-2-({6-[3-Chloro-4-(trifluoromethoxy)phenyl]pyrimidin-4-yl}amino)-1-(4-fluorophenyl)ethanol trifluoroacetic acid salt] |
| 0.042 | 0.69 | – | – | O[C@@H](CNc1cc(-c2cccc(C(F)(C(F)(F)F)C(F)(F)F)c2)ncn1)c1ccccc1 [Example 220, (1R)-Phenyl-2-{6-[3-(1,2,2,2-tetrafluoro-1-trifluoromethyl-ethyl)-phenyl]-Pyrimidin-4-ylamino}-ethanol] |
| 0.012 | 0.005 | – | – | CNc1nc(NC[C@H](O)c2ccccc2)cc(-c2ccc(C(F)(F)F)c(Cl)c2)n1 [Example 141, (1R)-2-({6-[3-Chloro-4-(trifluoromethyl)phenyl]-2-(methylamino)pyrimidin-4-yl}amino)-1-phenylethanol trifluoroacetic acid salt] |
| > 10 | > 10 | – | – | CC(=O)Nc1cccc(-c2cc(NCC(O)c3ccccc3)ncn2)c1 (stereo not shown) [Example 242, N-{3-[6-(2-Hydroxy-2-phenyl-ethylamino)-pyrimidin-4-yl]-phenyl}-acetamide] |
| 0.002 | 0.011 | – | – | O[C@@H](CNc1cc(-c2ccc(C(F)(F)F)c(F)c2)ncn1)c1ccc(F)cc1 [Example 173, (1R)-1-(4-Fluorophenyl)-2-({6-[3-fluoro-4-(trifluoromethyl)phenyl]pyrimidin-4-yl}amino)ethanol] |
| 0.17 | 0.17 | – | – | OC(CNc1cc(-c2ccc(C(F)(F)F)c(Cl)c2)ncn1)c1csc2ccccc12 (stereo not shown) [Example 201, 1-(1-benzothiophen-3-yl)-2-({6-[3-chloro-4-(trifluoromethyl)phenyl]pyrimidin-4-yl}amino)ethanol] |
| 0.092 | 0.025 | – | – | OC(CNc1cc(-c2ccc(C(F)(F)F)c(Cl)c2)ncn1)c1cccc(SC(F)(F)F)c1 (stereo not shown) [Example 198, 2-({6-[3-chloro-4-(trifluoromethyl)phenyl]pyrimidin-4-yl}amino)-1-[3-[(trifluoromethyl)sulfanyl]phenyl]ethanol] |
| 0.122 | 0.112 | – | – | OC(CNc1cc(-c2ccc(OC(F)(F)F)cc2)ncn1)c1ccc2c(c1)OCO2 (stereo not shown) [Example 127, 1-(1,3-Benzodioxol-5-yl)-2-[(6-{4-[(trifluoromethyl)oxy]phenyl}-pyrimidin-4-yl)amino]ethanol] |
| 0.026 | 0.066 | – | – | CC(=O)c1ccc(-c2cc(NCC(O)c3ccccc3)ncn2)cc1 (stereo not shown) [Example 228, 1-(4-{6-[(2-Hydroxy-2-phenylethyl)amino]pyrimidin-4-yl}phenyl)ethanone] |
| 0.033 | 0.216 | – | – | OC(CNc1cc(-c2cc3ccccc3s2)ncn1)c1ccccc1 (stereo not shown) [Example 227, 2-(6-Benzo[b]thiophen-2-yl-pyrimidin-4-ylamino)-1-phenyl-ethanol] |
| 2 | 2 | – | – | CNCCNc1nc(NC[C@H](O)c2ccccc2)cc(-c2ccc(C(F)(F)F)c(Cl)c2)n1 [Example 163, (1R)-2-[(6-[3-Chloro-4-(trifluoromethyl)phenyl]-2-{[2-(methylamino)ethyl]amino}pyrimidin-4-yl)amino]-1-phenylethanol hydrochloride salt] |
| 0.15 | 1 | – | – | OC(CNc1cc(-c2ccc3c(c2)OCO3)ncn1)c1ccccc1 (stereo not shown) [Example 232, 2-(6-Benzo[1,3]dioxol-5-yl-pyrimidin-4-ylamino)-1-phenyl-ethanol] |
| 0.01 | 0.4 | – | – | OC(CNc1cc(-c2ccc(C(F)(F)F)c(Cl)c2)ncn1)c1ccc(-c2ccccc2)cc1 (stereo not shown) [Example 195, 1-Biphenyl-4-yl-2-({6-[3-chloro-4-(trifluoromethyl)phenyl]pyrimidin-4-yl}amino)ethanol] |

More lines, now with the values behind:

| Compound | IC50 (FAAH) [µM] | IC50 (Rat FAAH-1) [µM] | IC50 (FAAH; [1]) [µM] | IC50 (Rat FAAH-1; [2]) [µM] |
| --- | --- | --- | --- | --- |
| CCc1ccc(-c2cc(NCC(O)c3ccccc3)ncn2)cc1 (stereo not shown) [Example 6, 2-{[6-(4-Ethylphenyl)pyrimidin-4-yl]amino}-1-phenylethanol] | 0.033 | 0.233 | – | – |
| CC(=O)Nc1cccc(-c2cc(NCC(O)c3ccccc3)ncn2)c1 (stereo not shown) [CE2, N-{3-[6-(2-Hydroxy-2-phenyl-ethylamino)-pyrimidin-4-yl]-phenyl}-acetamide, reference compound] | – | – | > 10 | > 10 |
| CCCOc1ccc(-c2cc(NC[C@H](O)c3ccccc3)ncn2)cc1 [Example 44, (1R)-1-Phenyl-2-{[6-(4-propoxyphenyl)pyrimidin-4-yl]amino}ethanol trifluoroacetic acid salt] | 0.05 | 0.6 | – | – |
| Cc1cc(-c2cc(NC[C@H](O)c3ccccc3)ncn2)ccc1OC(C)C [Example 46, (1R)-2-({6-[3-Methyl-4-(1-methylethoxy)phenyl]pyrimidin-4-yl}amino)-1-phenylethanol] | 0.013 | 0.026 | – | – |
| OC(CNc1cc(-c2ccsc2)ncn1)c1ccccc1 (stereo not shown) [CE7, 1-Phenyl-2-(6-thiophen-3-yl-pyrimidin-4-ylamino)-ethanol, reference compound] | – | – | > 10 | > 10 |
| O[C@@H](CNc1cc(-c2ccc3cc[nH]c3c2)ncn1)c1ccccc1 [Example 53, (1R)-2-{[6-(1H-Indol-6-yl)pyrimidin-4-yl]amino}-1-phenylethanol trifluoroacetic acid salt] | 0.765 | > 10 | – | – |
| O[C@@H](CNc1cc(-c2ccc(N3CCOCC3)nc2)ncn1)c1ccccc1 [Example 70, (1R)-2-{[6-(6-Morpholin-4-ylpyridin-3-yl)pyrimidin-4-yl]amino}-1-Phenylethanol] | 0.8 | > 10 | – | – |
| O[C@@H](CNc1cc(-c2ccc(Cl)c(F)c2)ncn1)c1ccccc1 [Example 27, (1R)-2-{[6-(4-Chloro-3-fluorophenyl)pyrimidin-4-yl]amino}-1-phenylethanol trifluoroacetic acid salt] | 0.024 | 0.12 | – | – |
| CC(C)(C#N)c1ccc(-c2cc(NC[C@H](O)c3ccccc3)ncn2)cc1 [Example 50, 2-[4-(6-{[(2R)-2-Hydroxy-2-phenylethyl]amino}pyrimidin-4-yl)phenyl]-2-methylpropanenitrile trifluoroacetic acid salt] | 0.092 | 0.985 | – | – |
| O[C@@H](CNc1cc(-c2ccc3[nH]ccc3c2)ncn1)c1ccccc1 [Example 85, (1R)-2-{[6-(1H-Indol-5-yl)pyrimidin-4-yl]amino}-1-phenylethanol trifluoroacetic acid salt] | 0.018 | 5 | – | – |
| O[C@@H](CNc1cc(-c2cc(F)cc(C(F)(F)F)c2)ncn1)c1ccccc1 [Example 42, (1R)-2-({6-[3-Fluoro-5-(trifluoromethyl)phenyl]pyrimidin-4-yl}amino)-1-phenylethanol trifluoroacetic acid salt] | 0.206 | 0.793 | – | – |
